Assay results as given in PMC8155022 (Scientific Reports, 2021).

Legend:
[1] = molecular target: T1, MR (Homo sapiens, UniProt P08235); assay: nuclear receptor cellular GAL4 reporter assay; format: cell-based; details: agonist and antagonist mode; read-out: potency in agonist and antagonist mode
T1 construct: expressed in transfected cells

[2] = molecular target: T2, Plk1(h) (Homo sapiens, UniProt P53350); assay: Kinase panel; format: biochemical
T2 construct: purchased Cerep (receptors, ion channels, transporters); Eurofins Panlabs (kinases)
Method: (§1) Kinase selectivity was conducted by Eurofins Panlabs Inc (St Charles, MO).

[3] = molecular target: ADRA2B - AG (Homo sapiens, UniProt P18089); assay: GPCR panel, cAMP or calcium FLIPR assays; format: cell-based
Method: 28 GPCRs were evaluated through cAMP or calcium FLIPR assays[67].

[4] = molecular target: T3, FGFR1(h) (Homo sapiens, UniProt P11362); assay: Kinase panel; format: biochemical
T3 construct: purchased Cerep (receptors, ion channels, transporters); Eurofins Panlabs (kinases)
Method: as §1

[5] = molecular target: T4, Aurora-B(h) (Homo sapiens, UniProt Q96GD4); assay: Kinase panel; format: biochemical
T4 construct: purchased Cerep (receptors, ion channels, transporters); Eurofins Panlabs (kinases)
Method: as §1

[6] = molecular target: T5, CCKA (h) (CCK1) (Homo sapiens, UniProt P32238); assay: Cerep panel; format: binding
T5 construct: purchased Cerep (receptors, ion channels, transporters); Eurofins Panlabs (kinases)
Method: (§2) A panel of 52 different receptors, ion channels and transporters was tested by Cerep, Inc. (Redmond, WA).

[7] = molecular target: T6, NK2 (h) (Homo sapiens, UniProt P21452); assay: Cerep panel; format: binding
T6 construct: purchased Cerep (receptors, ion channels, transporters); Eurofins Panlabs (kinases)
T6 sequence (P21452 1-398): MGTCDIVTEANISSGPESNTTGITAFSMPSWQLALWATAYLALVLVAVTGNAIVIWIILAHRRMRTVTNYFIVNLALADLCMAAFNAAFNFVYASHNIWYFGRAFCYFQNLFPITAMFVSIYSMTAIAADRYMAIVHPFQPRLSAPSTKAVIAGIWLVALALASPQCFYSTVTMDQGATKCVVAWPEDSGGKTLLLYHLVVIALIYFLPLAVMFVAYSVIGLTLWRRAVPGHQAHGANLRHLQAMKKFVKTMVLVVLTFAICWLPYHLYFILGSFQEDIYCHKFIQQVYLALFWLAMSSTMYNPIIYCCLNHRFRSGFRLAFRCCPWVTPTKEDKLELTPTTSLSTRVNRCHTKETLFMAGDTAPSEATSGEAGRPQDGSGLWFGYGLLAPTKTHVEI
Method: 28 GPCRs were evaluated through cAMP or calcium FLIPR assays[67]. A panel of 52 different receptors, ion channels and transporters was tested by Cerep, Inc. (Redmond, WA). Kinase selectivity was conducted by Eurofins Panlabs Inc (St Charles, MO).

[8] = molecular target: T7, cSRC(h) (Homo sapiens, UniProt P12931); assay: Kinase panel; format: biochemical
T7 construct: purchased Cerep (receptors, ion channels, transporters); Eurofins Panlabs (kinases)
Method: as §1

[9] = molecular target: T8, PKCβI(h) (Homo sapiens, UniProt P05771); assay: Kinase panel; format: biochemical
T8 construct: purchased Cerep (receptors, ion channels, transporters); Eurofins Panlabs (kinases)
Method: as §1

[10] = system: healthy human volunteers; assay: phase 1 single ascending dose study, safety
Method: Randomized, double-blind, placebo-controlled, single center study was designed by Janssen Immunology Clinical Development team and approved by Independent Ethics Committee/Institutional Review Board (Comité voor Medische Ethiek UZA, Wilrijkstraat 10, Edegem, 2650, Belgium). The study was conducted in Janssen’s Clinical Pharmacology Unit in Belgium from May 18th 2017 to April 5th 2018, according to Declaration of Helsinki principles and International Committee on Harmonisation Good Clinical Practice guidelines. […] Participants were healthy males and females of non-childbearing potential (postmenopausal or permanently sterile), aged 18 to 60 years inclusive, with a body mass index of 18 and 30 kg/m^2 and body weight of not less than 50 kg. Informed consent was obtained from all participants. No formal sample size and power calculations were performed. The number of participants chosen for this study was considered adequate to provide a preliminary safety assessment and PK assessment. The randomization was based on a computer-generated treatment randomization schedule prepared and balanced by using randomly permuted blocks. […] Participants and study site staff members including the Investigator were blinded to treatment allocation during entire study period. […] Cohorts 1 to 4 received single oral doses of 10, 30, 100 and 200 mg after an overnight fast, and cohort 5 were dosed 100 mg within 30 min of the start of a standard high fat meal. […] For all parts of the study, adverse events and concomitant medications were assessed and recorded from screening through follow-up (day 14–21 post-dose). The following safety measures were assessed at various time points during the study: medical history, physical examination, neurologic examination, electrocardiogram (12-lead ECG, or continuous telemetry), and vital signs (blood pressure, heart rate, respiratory rate, and temperature). […] This was a Phase 1 first-in-human study with limited sample size, the data generated was descriptive in nature, and no formal statistical hypothesis testing was planned. Although there was no formal interim analysis, assessments of PK and PD samples by cohort and safety assessments were conducted and reviewed during the study to plan dose-escalation and future development.

[11] = molecular target: T9, 5-HT6 (h) (Homo sapiens, UniProt P50406); assay: Cerep panel; format: binding
T9 construct: purchased Cerep (receptors, ion channels, transporters); Eurofins Panlabs (kinases)
Method: as §2

[12] = 100 mg (fasted) n = 9, single oral dose
[13] = 100 mg (fed) n = 9, single oral dose

T5 sequence (P32238 whole entry): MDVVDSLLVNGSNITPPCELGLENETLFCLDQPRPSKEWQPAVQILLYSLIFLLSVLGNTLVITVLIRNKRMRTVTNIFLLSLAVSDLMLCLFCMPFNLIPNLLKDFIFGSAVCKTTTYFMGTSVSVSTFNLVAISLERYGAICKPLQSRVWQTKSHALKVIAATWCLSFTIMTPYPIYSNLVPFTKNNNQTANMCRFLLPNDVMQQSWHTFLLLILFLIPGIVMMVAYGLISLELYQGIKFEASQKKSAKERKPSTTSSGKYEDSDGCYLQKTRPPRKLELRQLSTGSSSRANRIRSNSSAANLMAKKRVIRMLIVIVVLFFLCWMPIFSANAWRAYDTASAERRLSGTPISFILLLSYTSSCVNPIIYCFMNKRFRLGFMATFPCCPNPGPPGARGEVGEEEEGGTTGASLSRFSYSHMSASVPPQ
T8 sequence (P05771 whole entry): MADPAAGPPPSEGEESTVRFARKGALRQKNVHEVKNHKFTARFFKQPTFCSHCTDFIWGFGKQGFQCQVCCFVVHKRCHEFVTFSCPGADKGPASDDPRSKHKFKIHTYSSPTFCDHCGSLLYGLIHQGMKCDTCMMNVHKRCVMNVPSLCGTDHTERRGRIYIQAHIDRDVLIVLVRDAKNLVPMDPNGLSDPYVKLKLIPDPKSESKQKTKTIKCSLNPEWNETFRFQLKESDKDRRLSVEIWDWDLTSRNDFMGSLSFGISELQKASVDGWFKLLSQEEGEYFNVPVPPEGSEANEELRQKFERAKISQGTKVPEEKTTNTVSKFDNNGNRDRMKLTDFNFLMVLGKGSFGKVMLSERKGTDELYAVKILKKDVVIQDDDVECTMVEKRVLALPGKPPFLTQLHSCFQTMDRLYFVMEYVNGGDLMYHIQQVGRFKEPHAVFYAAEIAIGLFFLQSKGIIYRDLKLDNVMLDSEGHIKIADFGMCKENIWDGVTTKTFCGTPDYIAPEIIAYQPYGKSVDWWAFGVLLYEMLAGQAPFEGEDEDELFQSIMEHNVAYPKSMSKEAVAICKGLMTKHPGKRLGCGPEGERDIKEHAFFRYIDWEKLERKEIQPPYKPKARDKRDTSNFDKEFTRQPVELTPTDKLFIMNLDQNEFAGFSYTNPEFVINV
T4 sequence (Q96GD4 whole entry): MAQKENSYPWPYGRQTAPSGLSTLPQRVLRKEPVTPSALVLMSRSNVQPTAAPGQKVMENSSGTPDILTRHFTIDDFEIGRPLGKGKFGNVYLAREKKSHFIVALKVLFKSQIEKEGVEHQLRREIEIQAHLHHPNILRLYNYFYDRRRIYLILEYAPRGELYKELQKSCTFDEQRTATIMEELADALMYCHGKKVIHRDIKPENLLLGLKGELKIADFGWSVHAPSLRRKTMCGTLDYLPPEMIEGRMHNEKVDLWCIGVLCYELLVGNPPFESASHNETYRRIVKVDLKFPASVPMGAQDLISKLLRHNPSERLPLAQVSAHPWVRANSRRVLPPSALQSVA
T3 sequence (P11362 22-822): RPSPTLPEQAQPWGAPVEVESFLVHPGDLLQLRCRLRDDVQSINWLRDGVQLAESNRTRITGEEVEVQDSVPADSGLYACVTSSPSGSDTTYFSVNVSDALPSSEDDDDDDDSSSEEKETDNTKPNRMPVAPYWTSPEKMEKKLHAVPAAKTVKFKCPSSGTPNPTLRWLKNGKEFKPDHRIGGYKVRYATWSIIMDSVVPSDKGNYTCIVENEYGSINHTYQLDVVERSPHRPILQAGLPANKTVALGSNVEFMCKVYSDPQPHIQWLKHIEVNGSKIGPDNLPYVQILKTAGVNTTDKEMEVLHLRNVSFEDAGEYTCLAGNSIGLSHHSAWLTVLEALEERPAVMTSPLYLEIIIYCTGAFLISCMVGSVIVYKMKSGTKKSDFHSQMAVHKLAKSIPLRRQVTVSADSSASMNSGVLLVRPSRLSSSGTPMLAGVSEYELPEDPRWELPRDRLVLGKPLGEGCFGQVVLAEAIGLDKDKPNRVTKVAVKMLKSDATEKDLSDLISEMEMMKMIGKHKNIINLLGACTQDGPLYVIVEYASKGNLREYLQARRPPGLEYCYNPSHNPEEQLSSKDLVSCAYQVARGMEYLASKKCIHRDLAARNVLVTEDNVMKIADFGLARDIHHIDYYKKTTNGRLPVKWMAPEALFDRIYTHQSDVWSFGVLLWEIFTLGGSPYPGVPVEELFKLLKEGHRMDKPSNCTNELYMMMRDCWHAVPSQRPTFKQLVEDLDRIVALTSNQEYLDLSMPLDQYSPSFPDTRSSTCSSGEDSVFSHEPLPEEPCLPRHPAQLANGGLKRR
T9 sequence (P50406 whole entry): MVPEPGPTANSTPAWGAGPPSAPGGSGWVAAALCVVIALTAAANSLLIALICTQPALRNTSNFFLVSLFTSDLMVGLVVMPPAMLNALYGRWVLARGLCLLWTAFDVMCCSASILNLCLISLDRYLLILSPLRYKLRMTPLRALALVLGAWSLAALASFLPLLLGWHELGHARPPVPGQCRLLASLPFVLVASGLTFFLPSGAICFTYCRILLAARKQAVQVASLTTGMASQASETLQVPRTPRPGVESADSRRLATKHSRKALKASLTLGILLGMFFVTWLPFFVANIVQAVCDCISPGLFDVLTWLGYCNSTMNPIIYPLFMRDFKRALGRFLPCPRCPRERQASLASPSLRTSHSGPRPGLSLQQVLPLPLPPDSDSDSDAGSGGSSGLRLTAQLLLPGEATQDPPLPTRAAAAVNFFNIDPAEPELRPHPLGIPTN
T2 sequence (P53350 whole entry): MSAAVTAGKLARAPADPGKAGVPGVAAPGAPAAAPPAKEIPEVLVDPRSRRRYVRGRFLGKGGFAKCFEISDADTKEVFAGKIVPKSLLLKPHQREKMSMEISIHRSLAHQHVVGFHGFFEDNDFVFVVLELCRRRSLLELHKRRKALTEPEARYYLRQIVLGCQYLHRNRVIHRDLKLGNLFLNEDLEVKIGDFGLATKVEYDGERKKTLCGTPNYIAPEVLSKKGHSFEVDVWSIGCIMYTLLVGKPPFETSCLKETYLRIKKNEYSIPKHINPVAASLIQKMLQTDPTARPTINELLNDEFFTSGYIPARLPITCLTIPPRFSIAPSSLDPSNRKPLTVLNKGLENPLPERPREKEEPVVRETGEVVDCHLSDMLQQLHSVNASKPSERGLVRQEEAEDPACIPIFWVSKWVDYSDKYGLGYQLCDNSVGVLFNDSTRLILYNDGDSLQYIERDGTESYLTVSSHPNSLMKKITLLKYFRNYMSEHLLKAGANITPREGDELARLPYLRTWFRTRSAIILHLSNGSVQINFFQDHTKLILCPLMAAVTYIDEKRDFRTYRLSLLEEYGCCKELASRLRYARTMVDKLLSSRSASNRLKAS
T7 sequence (P12931 whole entry): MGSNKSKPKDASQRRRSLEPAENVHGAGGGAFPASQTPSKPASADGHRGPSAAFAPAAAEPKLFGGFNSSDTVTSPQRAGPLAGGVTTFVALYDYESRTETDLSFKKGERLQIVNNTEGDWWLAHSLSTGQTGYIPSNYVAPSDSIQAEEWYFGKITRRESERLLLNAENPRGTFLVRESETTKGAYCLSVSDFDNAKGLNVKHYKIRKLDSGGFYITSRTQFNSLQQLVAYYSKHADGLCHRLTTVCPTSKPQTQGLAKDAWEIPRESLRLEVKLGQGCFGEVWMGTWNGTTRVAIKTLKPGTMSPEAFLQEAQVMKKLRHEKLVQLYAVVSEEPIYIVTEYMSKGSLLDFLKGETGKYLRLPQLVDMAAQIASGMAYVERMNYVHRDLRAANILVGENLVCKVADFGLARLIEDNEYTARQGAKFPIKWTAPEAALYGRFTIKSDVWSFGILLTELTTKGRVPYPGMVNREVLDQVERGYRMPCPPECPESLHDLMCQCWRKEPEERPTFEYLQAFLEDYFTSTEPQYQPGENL
Chain of ADRA2B - AG (P18089 whole entry): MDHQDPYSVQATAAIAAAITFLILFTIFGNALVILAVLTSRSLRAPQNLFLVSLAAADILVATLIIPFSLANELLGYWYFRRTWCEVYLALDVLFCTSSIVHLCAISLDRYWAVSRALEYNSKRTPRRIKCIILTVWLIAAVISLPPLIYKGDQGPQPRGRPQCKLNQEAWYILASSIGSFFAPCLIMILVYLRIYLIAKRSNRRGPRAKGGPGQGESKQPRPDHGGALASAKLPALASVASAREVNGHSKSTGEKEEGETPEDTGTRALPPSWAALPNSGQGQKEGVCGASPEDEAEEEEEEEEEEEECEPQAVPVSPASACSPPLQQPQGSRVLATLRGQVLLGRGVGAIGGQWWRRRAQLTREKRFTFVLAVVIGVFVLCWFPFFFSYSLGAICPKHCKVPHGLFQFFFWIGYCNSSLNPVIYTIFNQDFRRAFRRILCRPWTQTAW

CC1CCCN1C(=O)c1nc(C(=O)NCC(C)(C)O)sc1-c1ccc(C(O)(C(F)(F)F)C(F)(F)F)c(Cl)c1Cl (stereo not shown) [JNJ-61803534]
124%: activity at 1 µM [5]
104%: activity at 10 µM [2]
> 1.5 µM: IC50 [1]
125%: activity at 10 µM [4]
no: TEAEs leading to death, treatment-emergent severe adverse events, severe TEAEs or TEAEs leading to discontinuation ([10]; in vivo)
Fourteen: participants with Grade 2 or higher abnormal cholesterol values ([10]; combined JNJ-61803534 group)
safe and well-tolerated: safety and tolerability ([10]; single doses up to and including 200 mg)
4: Headache, treatment-emergent adverse events [10, 12]
< 10%: inhibition at 1 µM [6] | inhibition at 10 µM [6] | inhibition at 1 µM ([7]; 1 µM) | inhibition at 1 µM [11] | inhibition at 10 µM [11]
one: participants with clinically significant high cholesterol values ([10]; 200 mg fasted group)
> 12.5 µM: EC50 ([3]; agonist) | IC50 ([3]; antagonist)
54.8%: % Inhibition at 10 µM ([7]; 10 µM)
145%: activity at 10 µM [5]
1: Back pain, treatment-emergent adverse events ([10]; 10 mg n = 6, single oral dose) | Headache, treatment-emergent adverse events ([10]; 30 mg n = 6, single oral dose) | Medical device site reaction, treatment-emergent adverse events ([10]; 30 mg n = 6, single oral dose) | Oral herpes, treatment-emergent adverse events ([10]; 30 mg n = 6, single oral dose) | Back pain, treatment-emergent adverse events [10, 12] | Aphthous ulcer, treatment-emergent adverse events [10, 13] | Back pain, treatment-emergent adverse events [10, 13] | Oral herpes, treatment-emergent adverse events [10, 13] | Aphthous ulcer, treatment-emergent adverse events ([10]; 200 mg n = 6, single oral dose) | Back pain, treatment-emergent adverse events ([10]; 200 mg n = 6, single oral dose) | Hypercholesterolaemia, treatment-emergent adverse events ([10]; 200 mg n = 6, single oral dose) | Medical device site reaction, treatment-emergent adverse events ([10]; 200 mg n = 6, single oral dose) | participants with TEAEs reasonably related to the study agent ([10]; combined JNJ-61803534 group (diarrhea))
> 50%: inhibition at 10 µM ([7]; 10 µM)
2: Diarrhea, treatment-emergent adverse events [10, 12] | Hypercholesterolaemia, treatment-emergent adverse events [10, 12] | Medical device site reaction, treatment-emergent adverse events [10, 12] | Nasal congestion, treatment-emergent adverse events [10, 12] | Viral upper respiratory tract infection, treatment-emergent adverse events [10, 12] | Diarrhea, treatment-emergent adverse events [10, 13] | Medical device site reaction, treatment-emergent adverse events [10, 13] | Viral upper respiratory tract infection, treatment-emergent adverse events [10, 13] | participants with clinically significant high cholesterol values ([10]; 100 mg fasted group) | Musculoskeletal discomfort, treatment-emergent adverse events ([10]; 200 mg n = 6, single oral dose)
78%: activity at 1 µM [8]
103%: activity at 1 µM [4]
0: Aphthous ulcer, treatment-emergent adverse events ([10]; 10 mg n = 6, single oral dose) | Diarrhea, treatment-emergent adverse events ([10]; 10 mg n = 6, single oral dose) | Headache, treatment-emergent adverse events ([10]; 10 mg n = 6, single oral dose) | Hypercholesterolaemia, treatment-emergent adverse events ([10]; 10 mg n = 6, single oral dose) | Medical device site reaction, treatment-emergent adverse events ([10]; 10 mg n = 6, single oral dose) | Musculoskeletal discomfort, treatment-emergent adverse events ([10]; 10 mg n = 6, single oral dose) | Nasal congestion, treatment-emergent adverse events ([10]; 10 mg n = 6, single oral dose) | Oral herpes, treatment-emergent adverse events ([10]; 10 mg n = 6, single oral dose) | Viral upper respiratory tract infection, treatment-emergent adverse events ([10]; 10 mg n = 6, single oral dose) | Aphthous ulcer, treatment-emergent adverse events ([10]; 30 mg n = 6, single oral dose) | Back pain, treatment-emergent adverse events ([10]; 30 mg n = 6, single oral dose) | Diarrhea, treatment-emergent adverse events ([10]; 30 mg n = 6, single oral dose) | Hypercholesterolaemia, treatment-emergent adverse events ([10]; 30 mg n = 6, single oral dose) | Musculoskeletal discomfort, treatment-emergent adverse events ([10]; 30 mg n = 6, single oral dose) | Nasal congestion, treatment-emergent adverse events ([10]; 30 mg n = 6, single oral dose) | Viral upper respiratory tract infection, treatment-emergent adverse events ([10]; 30 mg n = 6, single oral dose) | Aphthous ulcer, treatment-emergent adverse events [10, 12] | Musculoskeletal discomfort, treatment-emergent adverse events [10, 12] | Oral herpes, treatment-emergent adverse events [10, 12] | Headache, treatment-emergent adverse events [10, 13] | Hypercholesterolaemia, treatment-emergent adverse events [10, 13] | Musculoskeletal discomfort, treatment-emergent adverse events [10, 13] | Nasal congestion, treatment-emergent adverse events [10, 13] | Diarrhea, treatment-emergent adverse events ([10]; 200 mg n = 6, single oral dose) | Headache, treatment-emergent adverse events ([10]; 200 mg n = 6, single oral dose) | Nasal congestion, treatment-emergent adverse events ([10]; 200 mg n = 6, single oral dose) | Oral herpes, treatment-emergent adverse events ([10]; 200 mg n = 6, single oral dose) | Viral upper respiratory tract infection, treatment-emergent adverse events ([10]; 200 mg n = 6, single oral dose)
111%: activity at 1 µM [2]
97%: activity at 1 µM [9]
80%: activity at 10 µM [8]
87%: activity at 10 µM [9]
